Test results published in patent US11447500B2, “Thienopyridine derivatives and pharmaceutical composition comprising same” (WELLMARKER BIO CO., LTD., priority 2018, dated 2022).
Where a name gives a salt, the structure may show the parent alone.

System: RON-mutated (Δ160) HT-29 colon cancer cell line
Experiment: Cell killing efficacy, trypan blue exclusion assay, HT-29
Type: cell-based
Conditions: HT29 cell, 1 μM, 48 hours
Protocol: (§1) Two colon cancer cell lines, RON-activated KM12C (80015, KCLB, MEM+10% FBS) and RON-mutated (Δ160) HT-29 (30038, KCLB, RPMI+10% FBS) were prepared in 6-well plates at 5×10^4 cells/well, respectively. After 24 hours, while freshly changing the medium, the sample compounds were added to the wells at a concentration of 1 μM or 5 μM and the plates were allowed to stand for 48 hours.
(§2) As the sample compounds, the compounds synthesized in the examples of the present invention and the compounds of the comparative examples were used.
(§3) After 48 hours, the cell suspensions were collected and centrifuged (1,500 rpm, 4 min.) to obtain the cells, and live cells and dead cells were quantitated (n=2) through a trypan blue (15250-061, Gibco) exclusion assay. The statistical analysis was performed using Excel™ T-test from Microsoft.
(§4) The cell death rates of the compounds of Examples and Comparative Examples were respectively measured and the results are shown in Table 4 as relative ratios to Comparative Example 1.

CCOc1ccn(-c2ccccc2)c(=O)c1C(=O)Nc1ccc(Oc2ccnc3cc(-c4ccc(CN5CCN(C)CC5)cn4)sc23)c(F)c1.Cl [Example 34] was tested, and the “Cell death rate (Relative to Comp. Ex. 1)” value was “x 2.12”.

Same assay, conditions: HT29 cell, 5 μM, 48 hours

For CCOc1ccn(-c2ccccc2)c(=O)c1C(=O)Nc1ccc(Oc2ccnc3cc(-c4ccc(CN5CCN(C)CC5)cn4)sc23)c(F)c1.Cl [Example 34], the “Cell death rate (Relative to Comp. Ex. 1)” value was “x 1.66”.

System: RON-activated KM12C colon cancer cell line
Experiment: Cell killing efficacy, trypan blue exclusion assay, KM12C
Type: cell-based
Conditions: 1 μM, 48 hours
Protocol: as §1, §2, §3, §4

In the case of CCOc1ccn(-c2ccccc2)c(=O)c1C(=O)Nc1ccc(Oc2ccnc3cc(-c4ccc(CN5CCN(C)CC5)cn4)sc23)c(F)c1.Cl [Example 34], the “Cell death rate (Relative to Comp. Ex. 1)” value is reported as “x 2.07”.

Same assay, conditions: 5 μM, 48 hours

In the case of CCOc1ccn(-c2ccccc2)c(=O)c1C(=O)Nc1ccc(Oc2ccnc3cc(-c4ccc(CN5CCN(C)CC5)cn4)sc23)c(F)c1.Cl [Example 34], the “Cell death rate (Relative to Comp. Ex. 1)” value is reported as “x 1.11”.

Molecular target: T1, RON kinase (Homo sapiens, UniProt Q04912)
T1 construct: purchased Carna Bioscience
T1 sequence (Q04912 25-1400): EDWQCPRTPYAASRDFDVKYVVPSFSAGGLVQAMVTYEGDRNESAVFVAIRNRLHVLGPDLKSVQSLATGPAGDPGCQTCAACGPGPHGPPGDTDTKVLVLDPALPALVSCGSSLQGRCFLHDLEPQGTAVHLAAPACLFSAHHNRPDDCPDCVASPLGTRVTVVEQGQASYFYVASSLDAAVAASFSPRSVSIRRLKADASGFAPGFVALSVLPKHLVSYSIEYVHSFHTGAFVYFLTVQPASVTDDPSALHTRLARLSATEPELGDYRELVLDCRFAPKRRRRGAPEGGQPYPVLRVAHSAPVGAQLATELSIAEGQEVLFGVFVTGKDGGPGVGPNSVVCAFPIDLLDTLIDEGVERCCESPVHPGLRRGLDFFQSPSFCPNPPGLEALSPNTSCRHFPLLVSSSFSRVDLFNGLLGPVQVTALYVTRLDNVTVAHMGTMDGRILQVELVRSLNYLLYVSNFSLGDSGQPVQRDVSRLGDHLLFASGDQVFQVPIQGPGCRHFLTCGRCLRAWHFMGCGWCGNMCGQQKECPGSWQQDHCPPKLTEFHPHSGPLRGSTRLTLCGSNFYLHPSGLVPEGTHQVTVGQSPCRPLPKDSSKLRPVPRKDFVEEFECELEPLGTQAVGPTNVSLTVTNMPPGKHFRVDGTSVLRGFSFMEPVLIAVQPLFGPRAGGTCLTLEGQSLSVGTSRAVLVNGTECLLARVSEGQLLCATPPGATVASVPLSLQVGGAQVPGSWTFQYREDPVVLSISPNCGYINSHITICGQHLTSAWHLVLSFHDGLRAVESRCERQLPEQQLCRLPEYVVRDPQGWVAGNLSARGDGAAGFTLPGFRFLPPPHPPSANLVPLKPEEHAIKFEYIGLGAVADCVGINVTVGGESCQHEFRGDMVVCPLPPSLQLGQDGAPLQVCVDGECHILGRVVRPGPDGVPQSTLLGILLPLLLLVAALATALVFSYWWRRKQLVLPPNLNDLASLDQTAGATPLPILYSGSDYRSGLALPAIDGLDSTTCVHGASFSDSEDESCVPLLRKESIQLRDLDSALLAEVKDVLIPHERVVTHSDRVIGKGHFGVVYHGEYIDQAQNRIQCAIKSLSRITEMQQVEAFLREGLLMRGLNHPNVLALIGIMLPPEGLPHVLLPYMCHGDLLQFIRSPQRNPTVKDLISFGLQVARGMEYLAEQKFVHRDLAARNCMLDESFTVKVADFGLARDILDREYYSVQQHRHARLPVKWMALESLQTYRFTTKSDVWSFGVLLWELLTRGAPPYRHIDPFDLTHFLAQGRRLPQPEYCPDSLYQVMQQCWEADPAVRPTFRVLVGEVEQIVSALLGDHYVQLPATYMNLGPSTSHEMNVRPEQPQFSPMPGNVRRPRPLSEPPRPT
Experiment: RON kinase enzyme inhibitory activity, FRET (TR-FRET) technique
Type: biochemical
Conditions: 60 min reaction
Protocol: The enzyme inhibitory activity (IC50) of the thienopyridine derivative was measured using FRET (fluorescence resonance energy transfer) technique. RON kinase (Carna Bioscience) was diluted with a kinase assay buffer (50 mM HEPES pH 7.5, 1 mM EGTA, 10 mM MgCl2, 2 mM DTT, and 0.01% Tween-20) to a concentration of 2× (0.4 nM) the final reaction concentration and the dilution was added to a 384-well plate at 5 μL/well. As sample compounds, the compounds synthesized in the examples of the present invention and the compounds of the comparative examples were used. The sample compounds were respectively dissolved in 100% DMSO to obtain 1 mM stock solutions, which were then subjected to eight 10-fold serial dilutions. The sample compounds were diluted with the kinase assay buffer to a concentration of 4× the final reaction concentration, and the dilutions were added to the 384-well plate at 2.5 μL/well. The plate was incubated at room temperature for 15 minutes. Next, 0.25 M ATP solution (Sigma Aldrich) was diluted with the kinase reaction buffer to a concentration of 4× (60 μM) the final reaction concentration, and a tyrosine peptide substrate (Perkin-Elmer) was diluted therein to a concentration of 4× (400 nM) the final reaction concentration. The dilution was added to the 384-well plate at 2.5 μL/well. Then, the 384-well plate was incubated at room temperature and the reaction was allowed to proceed for 60 minutes. After 60 minutes, EDTA (Sigma Aldrich) was diluted with TR-FRET detection buffer (Perkin-Elmer) to a concentration of 4× (40 mM) the final reaction concentration. A europium-labeled anti-phosphotyrosine antibody (Perkin-Elmer) was diluted in the above EDTA dilution to a concentration of 4× (8 nM) the final reaction concentration to prepare a stop solution of the RON kinase reaction. The stop solution was added to the 384-well plate at 10 μL/well to terminate the reaction, and the plate was incubated at room temperature for 60 minutes. Thereafter, the plate was read on Victor X5 plate reader (Perkin-Elmer). At this time, the excitation wavelength was 340 nm and the emission wavelengths were 620 nm and 665 nm. The IC50 values of the sample compounds were determined using GraphPad Prism™ 5 by expressing the emission energy at 665 nm as a function of the sample compound concentration.

In order of rising IC50:
1. COCCNCc1ccc(-c2cc3nccc(Oc4ccc(NC(=O)c5c(OC)ccn(-c6ccc(Cl)cc6)c5=O)cc4F)c3s2)nc1 [Example 13, 1-(4-chlorophenyl)-N-(3-fluoro-4-{[2-(5-{[(2-methoxyethyl)amino]methyl}pyridin-2-yl)thieno[3,2-b]pyridin-7-yl]oxy}phenyl)-4-methoxy-2-oxo-1,2-dihydropyridine-3-carboxamide Hydrochloride]  1.14 nM
2. COCCNCc1ccc(-c2cc3nccc(Oc4ccc(NC(=O)c5cccn(-c6ccccc6)c5=O)cc4F)c3s2)nc1 [Example 5, N-(3-fluoro-4-{[2-(5-{[(2-methoxyethyl)amino]methyl}pyridin-2-yl)thieno[3,2-b]pyridin-7-yl]oxy}phenyl)-2-oxo-1-phenyl-1,2-dihydropyridine-3-carboxamide Hydrochloride]  1.15 nM
3. COCCNCc1ccc(-c2cc3nccc(Oc4ccc(NC(=O)c5cc(C)cn(-c6ccc(F)cc6)c5=O)cc4F)c3s2)nc1 [Example 29, N-(3-fluoro-4-{[-2-(5-{[(2-methoxyethyl)amino]methyl}pyridin-2-yl)thieno[3,2-b]pyridin-7-yl]oxy}phenyl)-1-(4-fluorophenyl)-5-methyl-2-oxo-1,2-dihydropyridine-3-carboxamide Hydrochloride]  1.21 nM
4. COCCNCc1ccc(-c2cc3nccc(Oc4ccc(NC(=O)c5c(C)cnn(-c6ccc(F)cc6)c5=O)cc4F)c3s2)nc1 [Example 17, N-(3-fluoro-4-{[2-(5-{[(2-methoxyethyl)amino]methyl}pyridin-2-yl)thieno[3,2-b]pyridin-7-yl]oxy}phenyl)-2-(4-fluorophenyl)-5-methyl-3-oxo-2,3-dihydropyridazine-4-carboxamide Hydrochloride]  1.59 nM
5. COCCNCc1ccc(-c2cc3nccc(Oc4ccc(NC(=O)c5cc(C)c(C)n(-c6ccc(F)cc6)c5=O)cc4F)c3s2)nc1 [Example 27, N-(3-fluoro-4-([2-(5-{[(2-methoxyethyl)amino)methyl]pyridin-2-yl}thieno[3,2-b]pyridin-7-yl)oxy]phenyl}-1-(4-fluorophenyl)-5,6-dimethyl-2-oxo-1,2-dihydropyridine-3-carboxamide Hydrochloride]  1.93 nM
6. CCOc1ccn(-c2ccc(C(F)(F)F)cc2)c(=O)c1C(=O)Nc1ccc(Oc2ccnc3cc(-c4ccc(CNCCOC)cn4)sc23)c(F)c1 [Example 12, 4-ethoxy-N-(3-fluoro-4-{[2-(5-{[(2-methoxyethyl)amino]methyl}pyridin-2-yl)thieno[3,2-b]pyridin-7-yl]oxy}phenyl)-2-oxo-1-(4-(trifluoromethyl)phenyl)-1,2-dihydropyridine-3-carboxamide Hydrochloride]  2.1 nM
7. CCOc1ccn(-c2ccc(F)cc2)c(=O)c1C(=O)Nc1ccc(Oc2ccnc3cc(-c4ccc(CN5CCOCC5)cn4)sc23)c(Cl)c1 [Example 36, N-[3-chloro-4-({2-[5-(morpholinomethyl)pyridin-2-yl]thieno[3,2-b]pyridin-7-yl}oxy)phenyl]-4-ethoxy-1-(4-fluorophenyl)-2-oxo-1,2-dihydropyridine-3-carboxamide Hydrochloride]  2.28 nM
8. CCOc1ccn(-c2ccc(Cl)cc2)c(=O)c1C(=O)Nc1ccc(Oc2ccnc3cc(-c4ccc(CN5CCOCC5)cn4)sc23)c(F)c1 [Example 35, 1-(4-chlorophenyl)-4-ethoxy-N-[3-fluoro-4-({2-[5-(morpholinomethyl)pyridin-2-yl]thieno[3,2-b]pyridin-7-yl}oxy)phenyl]-2-oxo-1,2-dihydropyridine-3-carboxamide Hydrochloride]  2.55 nM
9. CCOc1ccn(-c2ccc(OC)cc2)c(=O)c1C(=O)Nc1ccc(Oc2ccnc3cc(-c4ccc(CNCCOC)cn4)sc23)c(F)c1 [Example 15, 4-ethoxy-N-(3-fluoro-4-{[2-(5-{[(2-methoxyethyl)amino]methyl}pyridin-2-yl)thieno[3,2-b]pyridin-7-yl]oxy}phenyl)-1-(4-methoxyphenyl)-2-oxo-1,2-dihydropyridine-3-carboxamide Hydrochloride]  2.93 nM
10. CCOc1ccn(-c2cccc(OC)c2)c(=O)c1C(=O)Nc1ccc(Oc2ccnc3cc(-c4ccc(CNCCOC)cn4)sc23)c(F)c1 [Example 16, 4-ethoxy-N-(3-fluoro-4-{[2-(5-{[(2-methoxyethyl)amino]methyl}pyridin-2-yl)thieno[3,2-b]pyridin-7-yl]oxy}phenyl)-1-(3-methoxyphenyl)-2-oxo-1,2-dihydropyridine-3-carboxamide Hydrochloride]  3.43 nM
11. COCCNCc1ccc(-c2cc3nccc(Oc4ccc(NC(=O)c5ccnn(-c6ccccc6)c5=O)cc4F)c3s2)nc1 [Example 19, N-(3-fluoro-4-{[2-(5-{[(2-methoxyethyl)amino]methyl}pyridin-2-yl)thieno[3,2-b]pyridin-7-yl]oxy}phenyl)-3-oxo-2-phenyl-2,3-dihydropyridazine-4-carboxamide Hydrochloride]  3.66 nM
12. CCOc1ccn(-c2ccc(F)cc2)c(=O)c1C(=O)Nc1ccc(Oc2ccnc3cc(-c4ccc(CNCCOC)cn4)sc23)cc1Cl [Example 26, N-(2-chloro-4-{[2-(5-{[(2-methoxyethyl)amino]methyl}pyridin-2-yl)thieno[3,2-b]pyridin-7-yl]oxy}phenyl)-4-ethoxy-1-(4-fluorophenyl)-2-oxo-1,2-dihydropyridine-3-carboxamide Hydrochloride]  3.7 nM
13. COCCNCc1ccc(-c2cc3nccc(Oc4ccc(NC(=O)c5c(OC)ccn(-c6ccc(F)cc6)c5=O)c(Cl)c4)c3s2)nc1 [Example 10, N-(2-chlor-4-{[-2-(5-{[(2-methoxyethyl)amino]methyl}pyridin-2-yl)thieno[3,2-b]pyridin-7-yl]oxy}phenyl)-1-(4-fluorophenyl)-4-methoxy-2-oxo-1,2-dihydropyridine-3-carboxamide Hydrochloride]  5.66 nM
14. COCCNCc1ccc(-c2cc3nccc(Oc4ccc(NC(=O)c5cc(Br)cn(-c6ccc(F)cc6)c5=O)cc4F)c3s2)nc1 [Example 23, 5-bromo-N-(3-fluoro-4-{[2-(5-1 [(2-methoxyethyl)amino]methyl}pyridin-2-yl)thieno[3,2-b]pyridin-7-yl]oxy}phenyl)-1-(4-fluorophenyl)-2-oxo-1,2-dihydropyridine-3-carboxamide Hydrochloride]  8.05 nM
15. CCOc1ccn(-c2ccc(F)cc2)c(=O)c1C(=O)Nc1ccc(Oc2ccnc3cc(-c4ccc(CN5CCOCC5)cn4)sc23)cc1Cl [Example 37, N-[2-chloro-4-({2-[5-(morpholinomethyl)pyridin-2-yl]thieno[3,2-b]pyridin-7-yl}oxy)phenyl]-4-ethoxy-1-(4-fluorophenyl)-2-oxo-1,2-dihydropyridine-3-carboxamide Hydrochloride]  10.3 nM
16. CCOc1ccn(-c2ccc(F)cc2)c(=O)c1C(=O)Nc1ccc(Oc2ccnc3cc(-c4ccc(CN(CCOC)C(=O)OC(C)(C)C)cn4)sc23)c(F)c1 [Example 6, t-butyl {[6-(7-{4-[4-ethoxy-1-(4-fluorophenyl)-2-oxo-1,2-dihydropyridine-3-carboxamido]-2-fluorophenoxy}thieno[3,2-b]pyridin-2-yl)pyridin-3-yl]methyl}(2-methoxyethyl)carbamate]  21.9 nM
17. COCCNCc1ccc(-c2cc3nccc(Oc4ccc(NC(=O)c5cc(Cl)cn(-c6ccc(F)cc6)c5=O)cc4F)c3s2)nc1 [Example 24, 5-chloro-N-(3-fluoro-4-{[2-(5-{[(2-methoxyethyl)amino]methyl}pyridin-2-yl)thieno[3,2-b]pyridin-7-yl]oxy}phenyl)-1-(4-fluorophenyl)-2-oxo-1,2-dihydropyridine-3-carboxamide Hydrochloride]  24.2 nM
